Tissue uptake data for one compound are collected here from paper PMC9783573, “Introduction of a SiFA Moiety into the D-Glutamate Chain of DOTA-PP-F11N Results in Radiohybrid-Based CCK-2R-Targeted Compounds with Improved Pharmacokinetics In Vivo” (Pharmaceuticals, 2022).

The series can be described thus: in vivo. Also noted: species or system mice. The note with it: mouse, 24 h p.i. As to the method:
For biodistribution studies, the ^177Lu-labelled compound (approx. 2–3 MBq, 100 pmol) was injected into a lateral tail vein (n = 4) of anesthetised (2% isoflurane) AR42J tumour-bearing CB-17-SCID mice. At 24 h post-injection (p.i.), the mice were euthanised. Thereafter, the pertinent organs were removed, weighed and measured using a γ-counter.
For all competition studies, 2.90 mg/kg (40 nmol) of [^natLu]Lu-DOTA-MGS5 (10^−3 M in phosphate-buffered saline) were co-administered.
Figure S4. (a) Biodistribution of [177Lu]Lu-DOTA-rhCCK-16 (100 pmol) co-injected with [natLu]Lu-DOTA-MGS5
(40 nmol) in selected organs (%ID/g) at 24 h p.i. in AR42J tumour-bearing CB17-SCID mice. Data is expressed as
mean ± SD (n = 2). (b) Representative µSPECT/CT images of [177Lu]Lu-DOTA-rhCCK-16 co-injected with [natLu]Lu-
DOTA-MGS5 (40 nmol) at 24 h p.i. in AR42J tumour-bearing CB17- SCID mice.
(1 picture or pasted object on this page, not shown here)

Like-named read-outs stand apart in the source and are kept apart here. Bounds are passed on as bounds.

`CCCC[C@H](NC(=O)[C@H](Cc1c[nH]c2ccccc12)NC(=O)CNC(=O)[C@H](Cc1ccc(O)cc1)NC(=O)[C@H](C)NC(=O)CC[C@@H](NC(=O)CC[C@@H](NC(=O)CC[C@@H](NC(=O)CC[C@@H](NC(=O)CC[C@@H](NC(=O)CC[C@@H](NC(=O)[C@@H](CNC(=O)c1ccc([Si](F)(C(C)(C)C)C(C)(C)C)cc1)NC(=O)CC[C@H](C(=O)O)N1CCN(CC(=O)O)CCN(CC(=O)O)CCN(CC(=O)O)CC1)C(=O)O)C(=O)O)C(=O)O)C(=O)O)C(=O)O)C(=O)O)C(=O)N[C@@H](CC(=O)O)C(=O)N[C@@H](Cc1ccccc1)C(N)=O` [[nat/177Lu]Lu-(R)-DOTAGA-rhCCK-16, metal not drawn]: the tissue uptake at 24 h runs as follows: (CB17-SCID, iv, total radioactivity, competition, read-out: Activity levels in the stomach, co-injection of excess [natLu]Lu-DOTA-MGS5) less than 0.3 %ID/g; (CB17-SCID, iv, total radioactivity, competition, read-out: activity levels in the tumour, co-injection of excess [natLu]Lu-DOTA-MGS5) less than 1 %ID/g; (100 pmol + 40 nmol [natLu]Lu-DOTA-MGS5, n = 2, read-out: Biodistribution competition studies, Adrenal) 0.4 ± 0.11 %ID/g; (100 pmol + 40 nmol [natLu]Lu-DOTA-MGS5, n = 2, read-out: Biodistribution competition studies, Blood) 0.05 %ID/g; (100 pmol + 40 nmol [natLu]Lu-DOTA-MGS5, n = 2, read-out: Biodistribution competition studies, Bone) 0.24 ± 0.04 %ID/g; (100 pmol + 40 nmol [natLu]Lu-DOTA-MGS5, n = 2, read-out: Biodistribution competition studies, Heart) 0.13 ± 0.01 %ID/g. Further, the tissue uptake at 24 h came to 0.16 ± 0.03 %ID/g (100 pmol + 40 nmol [natLu]Lu-DOTA-MGS5, n = 2, read-out: Biodistribution competition studies, Intestine); 105 ± 21 %ID/g (100 pmol + 40 nmol [natLu]Lu-DOTA-MGS5, n = 2, read-out: Biodistribution competition studies, Kidney); 2.31 ± 0.66 %ID/g (100 pmol + 40 nmol [natLu]Lu-DOTA-MGS5, n = 2, read-out: Biodistribution competition studies, Liver); 2.59 ± 1.27 %ID/g (100 pmol + 40 nmol [natLu]Lu-DOTA-MGS5, n = 2, read-out: Biodistribution competition studies, Lung); 0.06 ± 0.04 %ID/g (100 pmol + 40 nmol [natLu]Lu-DOTA-MGS5, n = 2, read-out: Biodistribution competition studies, Muscle); 0.2 ± 0.01 %ID/g (100 pmol + 40 nmol [natLu]Lu-DOTA-MGS5, n = 2, read-out: Biodistribution competition studies, Pancreas). Besides, the tissue uptake at 24 h was 1.73 ± 0.01 %ID/g (100 pmol + 40 nmol [natLu]Lu-DOTA-MGS5, n = 2, read-out: Biodistribution competition studies, Spleen); 0.15 ± 0.04 %ID/g (100 pmol + 40 nmol [natLu]Lu-DOTA-MGS5, n = 2, read-out: Biodistribution competition studies, Stomach); 0.91 ± 0.04 %ID/g (100 pmol + 40 nmol [natLu]Lu-DOTA-MGS5, n = 2, read-out: Biodistribution competition studies, Tumour).
